Reference: the supplement of paper PMC10307832

Experiments:
Experiment in all cases: relative viability (nuclei count vs DMSO), 5 days (fraction); higher = more cells survive
[1] = compound: CN(C/C=C/C1=CC=C(C=C1)Cl)CC2=CC=CC=C2N(CCO)S(=O)(=O)C3=CC=C(C=C3)OC [KN-93] + C[C@]1(O)C[C@@H](c2nc(-c3ccc4ccc(-c5ccccc5)nc4c3)c3c(N)nccn32)C1 [Linsitinib] (partner 1 µM)
Outline: (§1)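 Each reported value is a median over duplicate plates. It expresses relative viability: treated-well nuclei count divided by vehicle-well nuclei count. Lung cancer cell lines in 1536-well plates were dosed by pin tool a day after seeding, alone with one drug or with a fixed anchor-drug dose plus five library-drug doses (not always all listed) in √10 steps, and nuclei were counted after 5 days.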

[2] = compound: CN(C/C=C/C1=CC=C(C=C1)Cl)CC2=CC=CC=C2N(CCO)S(=O)(=O)C3=CC=C(C=C3)OC [KN-93] + Cc1cc(Nc2cc(N3CCN(C)CC3)nc(Sc3ccc(NC(=O)C4CC4)cc3)n2)n[nH]1 [Tozasertib] (partner 0.1 µM)
Outline: as §1

[3] = compound: CN(C/C=C/C1=CC=C(C=C1)Cl)CC2=CC=CC=C2N(CCO)S(=O)(=O)C3=CC=C(C=C3)OC [KN-93] + Cc1nc(Nc2ncc(C(=O)Nc3c(C)cccc3Cl)s2)cc(N2CCN(CCO)CC2)n1 [Dasatinib] (partner 0.075 µM)
Outline: as §1

[4] = compound: CN(C/C=C/C1=CC=C(C=C1)Cl)CC2=CC=CC=C2N(CCO)S(=O)(=O)C3=CC=C(C=C3)OC [KN-93] + O=C(CCCCCCC(=O)Nc1ccccc1)NO [Vorinostat] (partner 1 µM)
Outline: as §1

[5] = compound: CN(C/C=C/C1=CC=C(C=C1)Cl)CC2=CC=CC=C2N(CCO)S(=O)(=O)C3=CC=C(C=C3)OC [KN-93] + O=C(c1cc(Cc2n[nH]c(=O)c3ccccc23)ccc1F)N1CCN(C(=O)C2CC2)CC1 [Olaparib] (partner 8 µM)
Outline: as §1

Cell Line	relative viability ([1]; first compound 0.08 µM)	relative viability ([1]; first compound 0.253 µM)	relative viability ([1]; first compound 2.53 µM)	relative viability ([1]; first compound 8 µM)	relative viability ([2]; first compound 0.08 µM)	relative viability ([2]; first compound 0.253 µM)	relative viability ([2]; first compound 2.53 µM)	relative viability ([2]; first compound 8 µM)	relative viability ([3]; first compound 0.08 µM)	relative viability ([3]; first compound 0.253 µM)	relative viability ([3]; first compound 2.53 µM)	relative viability ([3]; first compound 8 µM)	relative viability ([4]; first compound 0.08 µM)	relative viability ([4]; first compound 0.253 µM)	relative viability ([4]; first compound 2.53 µM)	relative viability ([4]; first compound 8 µM)	relative viability ([5]; first compound 0.08 µM)	relative viability ([5]; first compound 0.253 µM)	relative viability ([5]; first compound 2.53 µM)	relative viability ([5]; first compound 8 µM)
HCC-15	0.85	1	0.802	0.728	0.284	0.523	0.312	0.101	0.59	0.535	0.581	0.447	0.773	0.877	0.932	0.738	0.658	0.731	0.719	0.522
HCC-44	0.616	0.613	0.667	0.462	0.912	0.809	0.863	0.526	–	–	–	–	1.13	1.1	1.12	0.915	0.935	0.959	0.994	0.88
HCC-78	0.489	0.507	0.549	0.374	0.392	0.369	0.369	0.382	0.336	0.459	0.373	0.344	0.465	0.405	0.739	0.381	0.725	0.976	0.807	0.726
HCC-366	–	0.706	0.844	0.334	0.0849	0.0834	0.111	0.0411	0.513	0.562	0.737	0.223	0.301	0.251	0.514	0.168	0.298	0.318	0.422	0.2
HCC-827	1.02	0.921	0.939	0.875	0.445	0.492	0.404	0.337	0.279	0.302	0.233	0.275	0.929	0.874	0.793	0.777	0.745	0.556	0.704	0.608
HOP-62	0.938	1.15	1.12	0.982	0.395	0.44	0.401	0.273	0.52	0.669	0.675	0.501	0.557	0.824	0.748	0.487	0.325	0.401	0.0964	0.545
IA-LM	0.608	0.495	0.463	0.827	–	–	–	–	–	–	–	–	0.428	1.02	0.982	1.05	1.05	0.656	0.933	0.579
LC-2-ad	0.824	0.906	0.856	0.566	0.444	0.393	0.483	0.389	0.74	0.571	0.523	0.329	0.688	0.801	0.746	0.582	0.687	0.739	0.733	0.62
LCLC-97TM1	0.162	–	0.2	0.142	0.254	0.229	0.226	0.194	0.753	0.955	0.814	0.63	0.629	0.723	0.637	0.437	0.308	0.368	0.449	0.242
LCLC-103H	1.17	1.05	0.963	0.877	0.427	0.501	0.434	0.376	0.438	0.464	0.438	0.26	0.782	0.768	0.658	0.573	0.701	0.859	0.758	0.558
NCI-H522	–	–	–	–	0.551	0.536	0.566	0.511	0.825	0.949	0.846	0.695	0.886	0.966	0.857	0.858	0.61	0.607	0.576	0.649
NCI-H1563	1.22	1.2	1.02	0.934	–	–	–	–	0.473	0.415	0.471	0.377	–	–	–	–	–	–	–	–
NCI-H1650	–	–	–	–	0.39	0.339	0.382	0.309	0.399	0.262	0.297	0.24	0.468	0.503	0.541	0.431	0.702	0.428	0.854	0.608
NCI-H1703	1.14	–	0.976	0.389	–	–	–	–	–	–	–	–	–	–	–	–	0.432	–	0.372	0.181
NCI-H1792	–	0.573	0.567	0.394	–	–	–	–	0.651	0.681	0.973	0.633	–	–	–	–	0.351	0.312	0.392	0.311
NCI-H2170	–	–	–	–	0.755	0.845	0.729	0.454	0.501	0.55	0.718	0.266	0.717	0.907	0.932	0.522	0.531	0.679	0.679	0.419
NCI-H2342	–	–	–	–	0.471	0.492	0.556	0.421	0.277	0.327	0.354	0.277	0.635	0.8	0.835	0.719	0.4	0.423	0.446	0.352
